What is called viability is a read-out of living cells in per cent, often relative to untreated cells. A higher viability goes with better survival.

Molecules are shown by their SMILES. Some results are limits rather than exact numbers.

Data on one compound can be found in article PMC6261997, “Synergistic enzymatic and bioorthogonal reactions for selective prodrug activation in living systems” (Nature Communications, 2018).

What all share (format): cell-based
One data set relates to Saos-2 cells. The experiment in a line: Clonogenic assay, Saos-2 cells. As to conditions: pre-treated with 500 μM 2 for 6 h. The protocol: Supplementary Figure 17. Clonogenic assay of different cell lines before and after treatment with 2. HeLa cells, HUVECs and Saos-2 cells were seeded at density of 400 cells per well, CCC-HEH-2 cells were seeded at density of 200 cells per well. Cells were incubated with 500 µM 2 for 6 h in the treatment groups. Cells were not treated with compound 2 in the control groups. Colonies were harvest approximately 10 days after seeding. Scale bar, 10 mm.
Supplementary Figure 18. Cytotoxicity of activated Dox against HeLa cells and HUVECs. HeLa cells or HUVECs at the density of 3x10^3 cells per well were incubated with 100 µL of pre-warmed medium containing compound 2 at 300 or 500 µM for 6 h. After washing with PBS, 100 µL of 0.0001-10 µM TCO-Dox was added. After 72 h, cell proliferation was assessed by the MTT assay (n= 6). Error bars indicate standard […]
Supplementary Figure 19. […] At each time point, the remaining 2, corresponding generated 3 and remaining TCO-Dox were determined by UPLC-MS/MS. […]
Clonogenic assay of cells in vitro: Clonogenic assay was performed according to the standard protocol.6 2×10^5 attached cells were treated with 500 µM of 2 for 6 h in culture dishes. Cells were then detached, re-suspended in cultural medium and counted accurately. […]
The glutaraldehyde crystal violet mixture was removed carefully. […] The number of the colonies was counted using a stereomicroscope. […]

Data set [1] is described as follows: MTT cell viability / cytotoxicity assay, HUVECs. Particulars: human; 500 μM 2, 24 h, MTT. The procedure:
(§1) Cells were plated in flat-bottom 96-well plates at a density of 3 × 10^3 cells per well. After 12 h of cell attachment, the cell culture medium was replaced with 100 μL of pre-warmed media containing the compounds at different concentrations. After 24–72 h of incubation, cell proliferation was assessed by the MTT assay. A fresh mixture of 10 μL of thiazolyl blue tetrazolium bromide (MTT) and 90 μL of medium were freshly added to each well. After incubation for 4 h, the medium was gently removed. The formazan crystals that formed were dissolved in 110 μL of DMSO, and the absorbance was subsequently measured with a plate reader (Perkin Elmer) at 490 nm. EC50 values were calculated using Origin software. To measure the cytotoxicity of 2, HeLa cells, HUVECs, Saos-2 cells and CCC-HEH-2 cells were incubated with 100 μL of 1–500 μM 2 for 24 h, and then, cell viability was determined. To measure the cytotoxicity of TCO-Dox or Dox, HeLa cells, HUVECs, Saos-2 cells or CCC-HEH-2 cells were incubated with 200 μL of 0.001–10 μM TCO-Dox or Dox for 72 h, and the cell viability was determined. To determine the cytotoxicity of activated Dox, HeLa cells, HUVECs, […], and then, 2 was removed and 200 μL of 0.0001–10 μM TCO-Dox was added for 72 h of incubation, and cell viability was determined. […]
(§2) Prodrug activation efficacy in cells: Cells were plated on flat bottom 96-well plates at a
(§3) density of 3x10^3 cells per well. After 12 h attachment, cells were incubated with 100 µL
(§4) 500 µM of 2 for 6 h before removing 2 and the addition of 200 µL 0.0001-10 µM of […]

A short description of data set [2]: MTT cell viability / cytotoxicity assay, HeLa cells. Particulars: human; 500 μM 2, 24 h, MTT. The procedure:
as §1, §2, §3, §4

As to `Cc1nnc(-c2ccc(CC(=O)NCCCCC(NC(=O)Cc3ccc4ccccc4c3)C(=O)NC(Cc3ccc(OP(=O)(O)O)cc3)C(=O)NC(Cc3ccccc3)C(=O)O)cc2)nn1` (stereo not drawn) [compound 2, NapK(Tz)YpF], the “Surviving Fraction, Saos-2” value with Saos-2 cells turned out to be 0±0%. Also, the viability at 24 h, 500 μM in data set [1] and in data set [2] was > 85% in each case.
